Test: mn = molality of the nth substance listed, in mol/kg
Settings: 100 kPa, Liquid; for speed of sound: Frequency=3 MHz, Sing-around technique in a fixed-path interferometer; for mass density: Vibrating tube method

O [water] + O=C[C@H](O)[C@@H](O)[C@H](O)[C@H](O)CO
m2 = 0
Settings	mass density [kg/m3]	speed of sound [m/s]
313.15 K	–	1528.9
318.15 K	–	1536.6
323.15 K	988.031	–

CCC[NH3+].O=C[O-] [propylammonium formate] + O
Settings	mass density, m1 = 0.1 [kg/m3]	mass density, m1 = 0.2 [kg/m3]	mass density, m1 = 0.3 [kg/m3]	mass density, m1 = 0.4 [kg/m3]	speed of sound, m1 = 0.1 [m/s]	speed of sound, m1 = 0.2 [m/s]	speed of sound, m1 = 0.3 [m/s]	speed of sound, m1 = 0.4 [m/s]
293.15 K	999.222	1000.07	1000.91	1001.81	1492.2	1500.4	1508.2	1516.9
298.15 K	997.851	998.673	999.689	1000.56	1505.7	1513.4	1520.8	1528.9
303.15 K	996.637	997.448	998.238	999.087	1517.5	1524.9	1531.8	1539.4
308.15 K	994.884	995.676	996.581	997.41	1527.8	1534.7	1541.3	1548.4
313.15 K	993.191	993.97	994.725	995.542	1536.4	1543	1549.3	1555.9
318.15 K	990.986	991.749	992.694	993.502	1543.6	1549.9	1555.9	1562
323.15 K	988.793	989.611	990.498	991.295	1550.5	1555.4	1561.1	1566.9

O [water] + CCC[NH3+].O=C[O-]
m2 = 0
Settings	mass density [kg/m3]	speed of sound [m/s]
313.15 K	–	1528.9
318.15 K	–	1536.6
323.15 K	988.031	–

O=C[C@H](O)[C@@H](O)[C@H](O)[C@H](O)CO [D-glucose] + O
Settings	mass density [kg/m3]	speed of sound [m/s]
293.15 K, m1 = 0.05008	1001.67	–
293.15 K, m1 = 0.0698	1003.02	1487
293.15 K, m1 = 0.09118	1004.47	1488.3
293.15 K, m1 = 0.1108	1005.8	1489.5
293.15 K, m1 = 0.1312	–	1490.8
298.15 K, m1 = 0.05008	1000.44	–
298.15 K, m1 = 0.0698	1001.76	1501.4
298.15 K, m1 = 0.09118	1003.17	1502.7
298.15 K, m1 = 0.1108	1004.47	1504
298.15 K, m1 = 0.1312	1005.8	1505.3
303.15 K, m1 = 0.05008	999.038	1512.2
303.15 K, m1 = 0.0698	1000.35	1513.4
303.15 K, m1 = 0.09118	1001.76	1514.7
303.15 K, m1 = 0.1108	1003.05	1515.9
303.15 K, m1 = 0.1312	1004.38	1517.2
303.15 K, m1 = 0.1499	1005.58	1518.3
308.15 K, m1 = 0.05008	997.396	1522.8
308.15 K, m1 = 0.0698	998.701	1524
308.15 K, m1 = 0.09118	1000.11	1525.4
308.15 K, m1 = 0.1108	1001.39	1526.6
308.15 K, m1 = 0.1312	1002.71	–
308.15 K, m1 = 0.1499	1003.91	1529
313.15 K, m1 = 0.05008	995.571	1531.6
313.15 K, m1 = 0.0698	996.873	1532.8
313.15 K, m1 = 0.09118	998.274	1534
313.15 K, m1 = 0.1108	999.553	1535.1
313.15 K, m1 = 0.1312	1000.87	1536.2
313.15 K, m1 = 0.1499	1002.06	1537.3
318.15 K, m1 = 0.05008	993.55	–
318.15 K, m1 = 0.0698	994.845	1540.2
318.15 K, m1 = 0.09118	996.24	1541.4
318.15 K, m1 = 0.1108	–	1542.4
318.15 K, m1 = 0.1312	998.817	–
318.15 K, m1 = 0.1499	1000	1544.6
323.15 K, m1 = 0.05008	991.349	1545.3
323.15 K, m1 = 0.0698	992.639	1546.3
323.15 K, m1 = 0.09118	994.028	1547.4
323.15 K, m1 = 0.1108	995.295	1548.5
323.15 K, m1 = 0.1312	996.6	1549.5
323.15 K, m1 = 0.1499	997.788	1550.5

— the NIST ThermoML archive (doi:10.1016/j.jct.2016.07.051)
